Results from publication PMC10933438, “Inhibition of urease-mediated ammonia production by 2-octynohydroxamic acid in hepatic encephalopathy” (Nature Communications, 2024).

Columns and labels:
Jack bean urease [1] = target: T1, Jack bean urease (Canavalia ensiformis, UniProt P07374); test: cell-free pH-based (phenol red) urease activity assay; delay of half-maximal absorbance at […] inhibitor (ΔT50); format: biochemical
Jack bean urease [2] = target: T1, Jack bean urease; test: cell-free pH-based (phenol red) urease activity assay; ΔT50 at […] inhibitor; format: biochemical

T1 sequence (P07374 whole entry, looked up): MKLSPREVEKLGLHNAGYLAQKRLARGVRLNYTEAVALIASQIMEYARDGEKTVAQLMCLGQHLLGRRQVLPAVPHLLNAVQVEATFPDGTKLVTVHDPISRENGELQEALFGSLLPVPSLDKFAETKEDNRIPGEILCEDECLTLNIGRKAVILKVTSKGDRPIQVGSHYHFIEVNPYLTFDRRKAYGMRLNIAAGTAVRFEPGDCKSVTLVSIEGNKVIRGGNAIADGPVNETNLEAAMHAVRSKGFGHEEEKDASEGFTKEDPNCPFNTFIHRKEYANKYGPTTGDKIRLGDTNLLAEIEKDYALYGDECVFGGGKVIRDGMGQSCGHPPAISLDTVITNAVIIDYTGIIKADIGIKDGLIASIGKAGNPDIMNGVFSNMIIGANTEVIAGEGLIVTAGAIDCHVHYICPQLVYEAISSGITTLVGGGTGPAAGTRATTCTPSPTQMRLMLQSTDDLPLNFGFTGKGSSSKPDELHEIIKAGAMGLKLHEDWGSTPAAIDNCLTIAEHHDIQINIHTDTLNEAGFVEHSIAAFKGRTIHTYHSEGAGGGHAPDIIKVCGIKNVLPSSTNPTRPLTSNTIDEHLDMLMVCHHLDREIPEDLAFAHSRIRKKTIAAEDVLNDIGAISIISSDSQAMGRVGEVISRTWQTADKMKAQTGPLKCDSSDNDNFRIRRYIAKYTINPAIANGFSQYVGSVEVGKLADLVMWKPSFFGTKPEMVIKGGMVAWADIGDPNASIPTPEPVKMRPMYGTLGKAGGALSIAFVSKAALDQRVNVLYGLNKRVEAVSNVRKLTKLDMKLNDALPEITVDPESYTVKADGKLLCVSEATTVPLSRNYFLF

Structure (SMILES)	cell-free pH-based (phenol red) urease activity assay; delay of half-maximal abs (Jack bean urease [1]) [min]	cell-free pH-based (phenol red) urease activity assay; ΔT50 at 0.1 mM inhibitor (Jack bean urease [2]) [min]
CCCCCC#CC(=O)NO [2-octynoHA, 2-octynohydroxamic acid]	47.9 ± 2.6	
CC(=O)NO [AHA, acetohydroxamic acid]		2.8 ± 0.6
CCCCCCCC(=O)NO [OHA, octanohydroxamic acid]		3.0 ± 1.6
